We go through seven compounds from BindingDB's records for patent US12509446 (Rottapharm Biotech, 2025).

The target in test [1] is Vascular endothelial growth factor receptor 2 (Homo sapiens, UniProt P35968). The experiment in a line: In Vitro Kinase Activity Assay. As to the method: Table 12: The VEGFR2 kinase inhibitory activity of representative examples of compounds of Formula (I) assays was evaluated in Eurofins Cerep (France). The concentration range of the inhibitors under investigation was from 10−8 M up to 10−5 M final concentration. Some compounds were re-tested in a concentration-range starting from 10−9 M. The results are expressed as a percent of control activity (in the absence of test compound) and the IC50 values were determined by non-linear regression analysis of the inhibition/concentration curves generated with mean replicate values.
Vascular endothelial growth factor receptor 2, sequence (P35968 whole entry): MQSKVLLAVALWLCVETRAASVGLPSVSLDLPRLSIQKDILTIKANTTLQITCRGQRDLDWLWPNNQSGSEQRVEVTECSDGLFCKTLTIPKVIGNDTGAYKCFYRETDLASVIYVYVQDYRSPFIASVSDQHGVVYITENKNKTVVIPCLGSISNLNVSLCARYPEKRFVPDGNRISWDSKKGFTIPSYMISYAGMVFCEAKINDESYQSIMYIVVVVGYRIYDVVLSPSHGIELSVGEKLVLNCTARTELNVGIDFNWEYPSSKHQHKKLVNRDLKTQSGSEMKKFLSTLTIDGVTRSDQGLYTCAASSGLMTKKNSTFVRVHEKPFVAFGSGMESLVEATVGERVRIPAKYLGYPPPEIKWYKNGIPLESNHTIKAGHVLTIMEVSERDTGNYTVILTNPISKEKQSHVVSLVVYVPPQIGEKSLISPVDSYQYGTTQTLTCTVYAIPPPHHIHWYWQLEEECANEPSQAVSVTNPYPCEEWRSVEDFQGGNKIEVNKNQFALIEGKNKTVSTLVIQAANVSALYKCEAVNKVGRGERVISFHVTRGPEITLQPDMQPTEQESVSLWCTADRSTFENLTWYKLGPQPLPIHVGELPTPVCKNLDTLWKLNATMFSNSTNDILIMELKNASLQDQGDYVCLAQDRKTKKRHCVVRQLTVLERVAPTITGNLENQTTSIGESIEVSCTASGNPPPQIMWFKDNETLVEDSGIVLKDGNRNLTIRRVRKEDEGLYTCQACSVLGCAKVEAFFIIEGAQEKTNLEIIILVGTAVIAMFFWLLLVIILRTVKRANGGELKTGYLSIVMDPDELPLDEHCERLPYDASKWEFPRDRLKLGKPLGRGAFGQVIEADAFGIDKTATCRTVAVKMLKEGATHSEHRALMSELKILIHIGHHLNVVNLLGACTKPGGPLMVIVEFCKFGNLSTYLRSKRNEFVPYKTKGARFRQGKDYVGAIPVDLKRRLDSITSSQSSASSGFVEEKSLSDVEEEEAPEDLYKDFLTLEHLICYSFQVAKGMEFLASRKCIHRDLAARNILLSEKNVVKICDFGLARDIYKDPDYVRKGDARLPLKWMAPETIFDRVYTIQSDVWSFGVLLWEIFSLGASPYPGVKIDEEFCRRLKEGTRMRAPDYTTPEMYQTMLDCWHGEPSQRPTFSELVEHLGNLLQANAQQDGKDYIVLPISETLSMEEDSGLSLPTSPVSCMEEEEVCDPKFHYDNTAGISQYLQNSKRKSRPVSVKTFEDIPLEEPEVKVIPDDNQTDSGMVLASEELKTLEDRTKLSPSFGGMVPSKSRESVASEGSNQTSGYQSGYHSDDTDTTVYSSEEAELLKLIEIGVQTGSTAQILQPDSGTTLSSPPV

The target of test [2] is Tyrosine-protein kinase Fyn (Homo sapiens, UniProt P06241). As to the kind of experiment: In Vitro Kinase Activity Assay. As to the method: Table 11: The Fyn kinase inhibitory activity of representative examples of compounds of Formula (1) was evaluated by Z′-LYTE™ Kinase Assay Platform (Invitrogen). Compounds were evaluated towards active Fyn (full length active, molecular weight 87.1 kDa; Invitrogen). […] Samples representing the 0% inhibition (or total enzymatic activity) were in the presence of compound diluent (1% DMSO final in Reaction Buffer 50 mMHepes, 10 mM MgCl2, 1 mM EGTA, 0.01% Brij-35, pH 7.5). The kinase reaction was carried out in a total volume of 10 μl, for 60 minutes at 25° C. The 0% Phosphorylation (i.e. no ATP) and 100% Phosphorylation Assay Controls, included in each plate, allowed to calculate the percent phosphorylation achieved in the specific reaction well. Results are expressed as percentage of inhibition and the IC50 values were calculated by non-linear curve fitting using GraphPad™ Prism software (version 6 for Windows).
Tyrosine-protein kinase Fyn, sequence (P06241 whole entry): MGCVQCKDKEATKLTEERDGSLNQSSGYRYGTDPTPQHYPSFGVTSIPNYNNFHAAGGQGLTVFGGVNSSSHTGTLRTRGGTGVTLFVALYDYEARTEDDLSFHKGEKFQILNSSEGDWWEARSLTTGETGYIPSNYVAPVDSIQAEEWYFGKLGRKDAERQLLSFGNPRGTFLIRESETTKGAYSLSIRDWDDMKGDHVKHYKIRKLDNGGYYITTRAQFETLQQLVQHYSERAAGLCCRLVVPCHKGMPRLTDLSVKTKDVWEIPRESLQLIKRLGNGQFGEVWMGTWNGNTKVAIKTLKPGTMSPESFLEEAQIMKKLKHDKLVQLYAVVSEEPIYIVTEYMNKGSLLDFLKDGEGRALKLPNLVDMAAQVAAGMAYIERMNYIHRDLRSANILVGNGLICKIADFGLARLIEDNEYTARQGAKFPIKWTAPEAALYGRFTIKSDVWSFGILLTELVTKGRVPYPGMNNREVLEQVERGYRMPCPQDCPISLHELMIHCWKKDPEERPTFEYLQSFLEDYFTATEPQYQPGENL

As a reminder, the IC50 is the midpoint of a concentration-inhibition curve. A high value points to weaker potency in that assay.

As to `Cc1ccc(NC(=O)c2cccc(S(C)(=O)=O)c2)cc1CCc1cc(Nc2cnccn2)[nH]n1` [US12509446, Compound 1], the IC50 was less than 10 nM in test [1] and 36 nM in test [2].
With `CCN1CCN(c2cc(Nc3cc(CCc4cc(NC(=O)c5cccc(C(F)(F)F)c5)ccc4F)n[nH]3)nc(C)n2)CC1` [US12509446, Compound 29], the IC50 is less than 10 nM in test [1] and 15 nM in test [2].
The like results for `Cc1nc(Nc2cc(CCc3cc(NC(=O)c4cccc(C(F)(F)F)c4)ccc3F)n[nH]2)cc(N2CCN(CCO)CC2)n1` [US12509446, Compound 30] were, in that order, less than 10 nM and 6 nM.
The like results for `Cc1nc(Nc2cc(CCc3cc(NC(=O)c4cccc(C(F)(F)F)c4)ccc3F)n[nH]2)cc(N2CC(O)C2)n1` [US12509446, Compound 31] were, in that order, 18 nM and 10 nM.
In the case of `Cc1nc(Nc2cc(CCc3ccc(F)c(NC(=O)c4cccc(C(F)(F)F)c4)c3)n[nH]2)cc(N2CCN(CCO)CC2)n1` [US12509446, Compound 44], the figures for the IC50 in test [1] and in test [2] were less than 10 nM and 8 nM, respectively.
Regarding `CCN1CCN(c2cc(Nc3cc(CCc4ccc(F)c(NC(=O)c5cccc(C(F)(F)F)c5)c4)n[nH]3)nc(C)n2)CC1` [US12509446, Compound 45], the figures for the IC50 in test [1] and in test [2] were less than 10 nM and 22 nM, respectively.
For the compound `Cc1nc(Nc2cc(CCc3ccc(F)c(NC(=O)c4cccc(C(F)(F)F)c4)c3)n[nH]2)cc(N2CC(O)C2)n1` [US12509446, Compound 46], the IC50 in test [1] was less than 10 nM; in test [2] it was 18 nM.
